Experimental findings from ChEMBL document CHEMBL4622954, “Structural manipulation of aporphines via C10 nitrogenation leads to the identification of new 5-HT7AR ligands” (Bioorg Med Chem, 2020) are described below.

In test [1] the target is 5-hydroxytryptamine receptor 2A (Homo sapiens, UniProt P28223).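 Further: [3H]-Ketanserin displacement from the 5-HT2A receptor after 90 min incubation, with bound label read by MicroBeta counting.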
Description: Displacement of [3H]-Ketanserin from 5-HT2A receptor (unknown origin) incubated for 90 mins by microbeta counting method
Test [2] addresses T1, D(4) dopamine receptor (Homo sapiens) (UniProt P21917).
T1 sequence (whole entry): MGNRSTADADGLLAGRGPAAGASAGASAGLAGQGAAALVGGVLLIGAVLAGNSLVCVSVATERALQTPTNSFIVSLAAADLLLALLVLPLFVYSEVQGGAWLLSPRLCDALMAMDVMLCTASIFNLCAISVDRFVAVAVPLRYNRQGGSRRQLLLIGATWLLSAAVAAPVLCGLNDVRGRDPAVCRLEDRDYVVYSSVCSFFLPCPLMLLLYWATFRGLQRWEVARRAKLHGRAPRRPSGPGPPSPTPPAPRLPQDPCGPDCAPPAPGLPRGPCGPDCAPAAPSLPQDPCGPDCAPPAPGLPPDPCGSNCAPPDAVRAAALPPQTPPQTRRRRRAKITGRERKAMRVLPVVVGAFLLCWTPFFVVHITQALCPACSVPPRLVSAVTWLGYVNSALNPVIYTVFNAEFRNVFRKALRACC
Kind of test: (§1) Displacement of [3H]-N-Methylspiperone from human dopamine D4 receptor expressed in stable HEK cells incubated for 90 mins by microbeta counting method. It is filed as cell-based. (Loss of bound radioactivity is the signal in a displacement assay; it reports binding, not function.)

Another test concerns the target T2, D(4) dopamine receptor (Homo sapiens, UniProt P21917).
T2 sequence (P21917 whole entry): T1 sequence (whole entry)
The test is described as §1. It is filed as cell-based.

The next test deals with D(1B) dopamine receptor (Homo sapiens, UniProt P21918). Kind of test: Binding affinity to human dopamine D5 receptor expressed in HEKT cells incubated for 90 mins by microbeta counting method. It is filed as cell-based.
D(1B) dopamine receptor, sequence (P21918 whole entry): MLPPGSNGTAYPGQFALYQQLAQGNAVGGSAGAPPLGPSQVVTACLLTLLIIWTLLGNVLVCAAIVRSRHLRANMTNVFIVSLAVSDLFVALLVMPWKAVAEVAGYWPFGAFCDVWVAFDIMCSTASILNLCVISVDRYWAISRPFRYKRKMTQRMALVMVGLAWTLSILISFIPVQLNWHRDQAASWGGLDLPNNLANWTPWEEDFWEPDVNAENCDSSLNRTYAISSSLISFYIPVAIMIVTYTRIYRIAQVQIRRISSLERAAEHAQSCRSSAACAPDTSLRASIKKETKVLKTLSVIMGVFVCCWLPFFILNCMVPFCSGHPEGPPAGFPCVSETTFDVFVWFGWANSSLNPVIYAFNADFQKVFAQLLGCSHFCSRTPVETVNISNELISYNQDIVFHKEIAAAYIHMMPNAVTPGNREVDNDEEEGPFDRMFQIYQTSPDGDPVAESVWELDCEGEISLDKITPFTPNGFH
A further test is filed under the species Homo sapiens. Kind of test: Selectivity index, ratio of Ki for human 5-HT7A receptor expressed in stable HEK cell membrane to Ki for human 5-HT1A receptor expresssed in stable CHO cell membrane incubated for 90 mins by microbeta counting method. It is filed as cell-based.
A further test has as its target D(3) dopamine receptor (Homo sapiens, UniProt P35462).
Test [3] addresses T3, 5-hydroxytryptamine receptor 6 (Homo sapiens, UniProt P50406).
The target in test [4] is T4, D(1A) dopamine receptor (Homo sapiens, UniProt P21728).
T4 sequence (P21728 whole entry): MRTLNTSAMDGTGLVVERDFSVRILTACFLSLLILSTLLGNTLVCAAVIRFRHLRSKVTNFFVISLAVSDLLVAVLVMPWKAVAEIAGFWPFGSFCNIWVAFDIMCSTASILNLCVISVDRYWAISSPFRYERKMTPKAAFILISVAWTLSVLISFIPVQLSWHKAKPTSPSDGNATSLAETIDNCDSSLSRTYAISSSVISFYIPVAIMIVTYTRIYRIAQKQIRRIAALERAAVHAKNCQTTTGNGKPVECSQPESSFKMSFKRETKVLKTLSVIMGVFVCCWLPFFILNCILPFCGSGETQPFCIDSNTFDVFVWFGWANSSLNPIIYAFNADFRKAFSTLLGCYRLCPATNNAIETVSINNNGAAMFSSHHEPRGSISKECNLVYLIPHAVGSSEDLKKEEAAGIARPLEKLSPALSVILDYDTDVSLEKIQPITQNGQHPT
In test [5] the target is T5, D(2) dopamine receptor (Homo sapiens, UniProt P14416). The following applies: fibroblast.
T5 sequence (P14416 whole entry): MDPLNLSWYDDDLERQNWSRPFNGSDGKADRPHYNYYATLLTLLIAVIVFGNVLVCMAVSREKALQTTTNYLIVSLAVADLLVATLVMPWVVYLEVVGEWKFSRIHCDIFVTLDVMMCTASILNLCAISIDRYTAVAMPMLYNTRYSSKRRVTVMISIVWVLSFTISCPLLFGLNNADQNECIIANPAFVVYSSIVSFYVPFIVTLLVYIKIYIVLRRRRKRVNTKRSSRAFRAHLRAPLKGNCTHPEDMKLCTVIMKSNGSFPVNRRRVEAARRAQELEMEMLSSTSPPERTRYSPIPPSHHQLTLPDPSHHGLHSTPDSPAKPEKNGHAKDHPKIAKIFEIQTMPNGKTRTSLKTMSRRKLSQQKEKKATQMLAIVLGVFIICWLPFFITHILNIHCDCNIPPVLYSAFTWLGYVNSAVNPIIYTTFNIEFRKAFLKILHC
The target of test [6] is T6, 5-hydroxytryptamine receptor 1A (Homo sapiens, UniProt P08908).
T6 sequence (P08908 whole entry): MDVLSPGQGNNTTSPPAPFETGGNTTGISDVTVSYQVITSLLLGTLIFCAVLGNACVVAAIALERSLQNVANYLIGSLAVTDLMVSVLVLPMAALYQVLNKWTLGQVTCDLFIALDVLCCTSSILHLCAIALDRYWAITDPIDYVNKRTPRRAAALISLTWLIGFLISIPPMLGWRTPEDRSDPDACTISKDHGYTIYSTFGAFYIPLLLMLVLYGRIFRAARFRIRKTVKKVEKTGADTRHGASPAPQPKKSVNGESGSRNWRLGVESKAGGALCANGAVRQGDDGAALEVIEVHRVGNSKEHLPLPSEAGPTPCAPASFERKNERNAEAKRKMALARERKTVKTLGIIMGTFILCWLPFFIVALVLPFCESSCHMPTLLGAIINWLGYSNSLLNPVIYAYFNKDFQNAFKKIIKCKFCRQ
Kind of test: biochemical.
Description: Displacement of [3H]-WAY100635 from human 5-HT1A receptor expresssed in stable CHO cell membrane incubated for 90 mins by microbeta counting method

Test [7] deals with T7, 5-hydroxytryptamine receptor 7 (Homo sapiens, UniProt P34969). Kind of test: biochemical.
T7 sequence (P34969 whole entry): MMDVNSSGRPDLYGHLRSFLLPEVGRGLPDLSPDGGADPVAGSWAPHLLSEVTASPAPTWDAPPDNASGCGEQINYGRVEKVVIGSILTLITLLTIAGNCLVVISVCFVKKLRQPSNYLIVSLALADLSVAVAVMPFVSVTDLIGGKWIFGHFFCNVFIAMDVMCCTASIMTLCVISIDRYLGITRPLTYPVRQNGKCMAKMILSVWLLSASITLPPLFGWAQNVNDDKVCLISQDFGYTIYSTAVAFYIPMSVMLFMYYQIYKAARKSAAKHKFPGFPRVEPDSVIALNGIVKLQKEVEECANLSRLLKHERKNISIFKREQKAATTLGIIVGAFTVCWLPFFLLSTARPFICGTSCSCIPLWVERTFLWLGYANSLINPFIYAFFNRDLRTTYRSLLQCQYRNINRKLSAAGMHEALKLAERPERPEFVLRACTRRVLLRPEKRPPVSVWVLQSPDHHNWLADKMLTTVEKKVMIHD
Description: Displacement of [3H]-LSD from human 5-HT7A receptor expresssed in stable HEK cell membrane incubated for 90 mins by microbeta counting method
The target in test [8] is T4, D(1A) dopamine receptor. Kind of test: Displacement of [3H]-SCH23390 from human dopamine D1 receptor expressed in HEKT cells incubated for 90 mins by microbeta counting method.
Test [9] concerns the target T3, 5-hydroxytryptamine receptor 6. Nature of the test: Displacement of [3H]-LSD from human 5-HT6 receptor expresssed in stable HEK cell membrane incubated for 90 mins by microbeta counting method.
The target of test [10] is T5, D(2) dopamine receptor. Nature of the test: Displacement of [3H]-N-Methylspiperone from human dopamine D2 receptor expressed in stable fibroblast cells incubated for 90 mins by microbeta counting method.
Test [11] has as its target T4, D(1A) dopamine receptor. Kind of test: biochemical.
Test [12] deals with T5, D(2) dopamine receptor. Kind of test: biochemical.
Test [13] has as its target T7, 5-hydroxytryptamine receptor 7. Nature of the test: Antagonist activity at human recombinant 5-HT7 receptor expressed in CHOK1 Hunter cell preincubated for 30 mins followed by incubation with agonist for 30 to 60 mins by hit-hunter cAMP assay based chemiluminescence analysis. It is filed as functional, CHO-K1.

Each structure is given as a SMILES string. Counter-ions that a name gives are not always drawn.

T3 sequence (P50406 whole entry): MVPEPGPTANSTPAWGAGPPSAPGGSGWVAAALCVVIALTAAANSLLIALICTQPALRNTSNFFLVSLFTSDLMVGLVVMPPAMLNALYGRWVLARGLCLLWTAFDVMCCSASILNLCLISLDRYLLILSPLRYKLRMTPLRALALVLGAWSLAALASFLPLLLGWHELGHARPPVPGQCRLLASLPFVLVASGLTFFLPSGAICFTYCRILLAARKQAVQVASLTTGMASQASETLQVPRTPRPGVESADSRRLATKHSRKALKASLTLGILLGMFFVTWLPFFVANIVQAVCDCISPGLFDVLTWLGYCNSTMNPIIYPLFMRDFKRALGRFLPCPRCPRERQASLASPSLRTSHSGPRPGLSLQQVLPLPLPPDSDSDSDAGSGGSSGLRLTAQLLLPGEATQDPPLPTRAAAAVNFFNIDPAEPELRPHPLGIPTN
D(3) dopamine receptor, sequence (P35462 whole entry): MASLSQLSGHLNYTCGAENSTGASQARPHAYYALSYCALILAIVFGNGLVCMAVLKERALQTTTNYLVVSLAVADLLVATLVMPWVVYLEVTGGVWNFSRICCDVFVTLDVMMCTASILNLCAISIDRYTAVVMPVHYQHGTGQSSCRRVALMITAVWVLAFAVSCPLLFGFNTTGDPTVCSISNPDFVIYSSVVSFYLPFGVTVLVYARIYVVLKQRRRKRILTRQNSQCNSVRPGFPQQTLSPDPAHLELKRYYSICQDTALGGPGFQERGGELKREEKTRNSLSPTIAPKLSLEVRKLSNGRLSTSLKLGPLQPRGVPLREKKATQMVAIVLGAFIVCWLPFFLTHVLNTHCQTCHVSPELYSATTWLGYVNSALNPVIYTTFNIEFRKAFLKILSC
5-hydroxytryptamine receptor 2A, sequence (P28223 whole entry): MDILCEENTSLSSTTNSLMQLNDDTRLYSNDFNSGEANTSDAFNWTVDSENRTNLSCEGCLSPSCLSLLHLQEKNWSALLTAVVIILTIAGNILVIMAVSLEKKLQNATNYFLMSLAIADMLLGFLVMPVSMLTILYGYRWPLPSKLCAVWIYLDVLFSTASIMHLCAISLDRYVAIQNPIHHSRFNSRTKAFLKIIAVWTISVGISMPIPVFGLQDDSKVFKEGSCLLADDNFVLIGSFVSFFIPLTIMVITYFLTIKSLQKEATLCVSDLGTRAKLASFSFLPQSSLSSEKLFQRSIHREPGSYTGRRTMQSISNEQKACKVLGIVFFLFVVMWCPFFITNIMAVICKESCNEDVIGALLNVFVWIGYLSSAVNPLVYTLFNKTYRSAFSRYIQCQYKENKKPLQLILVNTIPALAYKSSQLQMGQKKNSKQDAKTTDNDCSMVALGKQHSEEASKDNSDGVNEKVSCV
Description for D(3) dopamine receptor: Displacement of [3H]-N-Methylspiperone from dopamine D3 receptor (unknown origin) incubated for 90 mins by microbeta counting method

The term Ki denotes a dissociation constant, usually derived from enzyme kinetics or from competition with a known ligand. One may read the inhibition as the change of the read-out against control, counted positive when it falls. Take `CCCN1CCc2cccc3c2C1Cc1cc2sc(N)nc2cc1-3` (racemic): the Ki result in test [1] was “Not Active”; at D(4) dopamine receptor it was “Not Active”; at D(1B) dopamine receptor, “Not Active”; on D(3) dopamine receptor it was 2.11 µM; in test [3], “Not Active”; at D(1A) dopamine receptor [4] it was “Not Active”. Moreover, the values for the Ki result (on D(2) dopamine receptor [5]; in test [6]; in [7]) were “Not Active”, 0.0075 µM and 0.132 µM, respectively. Besides, the inhibition (in [2]; at D(1B) dopamine receptor; at D(1A) dopamine receptor [8]; in test [9]; on D(2) dopamine receptor [10]) was < 50% each time. The Ratio Ki in the test filed under Homo sapiens worked out at 17.

`CN1CCc2cccc3c2C1Cc1ccc2nc(N)sc2c1-3` (racemic): the Ki was 1.04 µM in test [1] (read-out: Ki); 0.481 µM at D(4) dopamine receptor (read-out: Ki); “Not Active” on D(1B) dopamine receptor; 0.381 µM at D(3) dopamine receptor; “Not Active” in test [3]; 0.187 µM in test [6]. Further, the Ki in test [7] was 0.0099 µM; on D(1A) dopamine receptor [11], 1.15 µM; at D(2) dopamine receptor [12], 1.74 µM. Besides, the inhibition (on D(1B) dopamine receptor; in test [9]) was < 50% each time.

One may read the IC50 as the concentration that inhibits the measured activity by half. For `O=C(CCCN1CCC2(CC1)C(=O)NCN2c1ccccc1)c1ccc(F)cc1` [SPIPERONE HYDROCHLORIDE], the IC50 in test [13] is 0.31 µM.
